Source: ChEMBL document CHEMBL5500405, “Design and Synthesis of Clinical Candidate PF-06852231 (CVL-231): A Brain Penetrant, Selective, Positive Allosteric Modulator of the M4 Muscarinic Acetylcholine Receptor” (J Med Chem, 2024)

Key:
[1] = Lipophilicity, logD of compound by shake flask method; assay type: physicochemical; conditions: octanol/water
[2] = Stability of compound at pH 1 assessed as half-life by 1H NMR assay; assay type: physicochemical; conditions: buffer
[3] = Unbound plasma concentration in mouse at 1 mg/kg, sc; assay type: ADME, organism-based; conditions: in vivo
[4] = Unbound plasma concentration in mouse at […], sc; assay type: ADME, organism-based; conditions: in vivo, dose 3.2 mg/kg
[5] = Unbound plasma concentration in mouse at 10 mg/kg, sc; assay type: ADME, organism-based; conditions: in vivo
[6] = Unbound plasma concentration in mouse at 32 mg/kg, sc; assay type: ADME, organism-based; conditions: in vivo
[7] = Unbound brain concentration in mouse at 1 mg/kg, sc; assay type: ADME, organism-based; conditions: in vivo
[8] = Unbound brain concentration in mouse at […], sc; assay type: ADME, organism-based; conditions: in vivo, dose 3.2 mg/kg
[9] = Unbound brain concentration in mouse at 10 mg/kg, sc; assay type: ADME, organism-based; conditions: in vivo
[10] = Unbound brain concentration in mouse at 32 mg/kg, sc; assay type: ADME, organism-based; conditions: in vivo

Compound: Cc1cc(C)c2c(n1)CN(C(=O)CC1CC1)C2
- logD [1]: 1.84

Compound: Cc1cc(C)c2c(n1)CN(C(=O)CC1CN(c3ccccc3)C1)C2
- half-life [2]: 9 min

Compound: Cc1cc(C)c2c(n1)CN(C(=O)CC1CN(c3ccnc(C(F)(F)F)c3)C1)C2 [EMRACLIDINE]
- Cp(f) [3]: 26 nM
- Cp(f) [4]: 47 nM
- Cp(f) [5]: 219 nM
- Cp(f) [6]: 480 nM
- Drug uptake(free) [7]: 13 nM
- Drug uptake(free) [8]: 22 nM
- Drug uptake(free) [9]: 105 nM
- Drug uptake(free) [10]: 240 nM
